Data as given in PubChem BioAssay (NCI).
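Growth conditions: 96-well plates. Treatment: test compound, 48 hours, 5 concentrations. Analysis: linear interpolation between bracketing concentrations; unreached endpoints set to highest concentration. TGI: total growth inhibition.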

Tests used:
Assay in all cases: NCI tumour cell line growth inhibition, 48 h
[1] = tested on: A498 renal
[2] = tested on: A549 NSCLC
[3] = tested on: CAKI-1 renal
[4] = tested on: CCRF-CEM leukemia
[5] = tested on: COLO 205 colon
[6] = tested on: DLD-1 colon
[7] = tested on: DMS 114 small cell lung
[8] = tested on: DMS 273 small cell lung
[9] = tested on: HCC-2998 colon
[10] = tested on: HCT-116 colon
[11] = tested on: HCT-15 colon
[12] = tested on: HL-60(TB) leukemia
[13] = tested on: HOP-18 NSCLC
[14] = tested on: HOP-62 NSCLC
[15] = tested on: HOP-92 NSCLC
[16] = tested on: HT29 colon
[17] = tested on: IGROV1 ovarian
[18] = tested on: K-562 leukemia
[19] = tested on: KM12 colon
[20] = tested on: KM20L2 colon
[21] = tested on: LOX IMVI melanoma
[22] = tested on: MALME-3M melanoma
[23] = tested on: MCF7 breast
[24] = tested on: MOLT-4 leukemia
[25] = tested on: NCI-H226 lung
[26] = tested on: NCI-H23 lung
[27] = tested on: NCI-H460 lung
[28] = tested on: NCI-H522 lung
[29] = tested on: NCI/ADR-RES ovarian
[30] = tested on: OVCAR-3 ovarian
[31] = tested on: OVCAR-4 ovarian
[32] = tested on: OVCAR-5 ovarian
[33] = tested on: OVCAR-8 ovarian
[34] = tested on: P388 leukemia
[35] = tested on: P388/ADR leukemia
[36] = tested on: RPMI-8226 leukemia
[37] = tested on: RXF 393 renal
[38] = tested on: SF-268 CNS
[39] = tested on: SF-295 CNS
[40] = tested on: SF-539 CNS
[41] = tested on: SK-MEL-2 melanoma
[42] = tested on: SK-MEL-28 melanoma
[43] = tested on: SK-MEL-5 melanoma
[44] = tested on: SK-OV-3 ovarian
[45] = tested on: SN12C renal
[46] = tested on: SN12K1 renal
[47] = tested on: SNB-19 CNS
[48] = tested on: SNB-75 CNS
[49] = tested on: SNB-78 CNS
[50] = tested on: SW-620 colon
[51] = tested on: U251 CNS
[52] = tested on: UACC-257 melanoma
[53] = tested on: UACC-62 melanoma
[54] = tested on: UO-31 renal
[55] = tested on: XF 498 CNS
[56] = tested on: 786-0 renal
[57] = tested on: ACHN renal
[58] = tested on: EKVX NSCLC
[59] = tested on: LXFL 529 NSCLC
[60] = tested on: M14 melanoma
[61] = tested on: M19-MEL melanoma
[62] = tested on: RXF-631 renal
[63] = tested on: TK-10 renal

## NC(N)=Nc1ncccc1[N+](=O)[O-]
[1]
  TGI: > 100 µM
[2]
  TGI: > 100 µM
[3]
  TGI: > 100 µM
[4]
  TGI: > 100 µM
[5]
  TGI: 57.2 µM
[6]
  TGI: > 100 µM
[7]
  TGI: 30.5 µM
[8]
  TGI: > 100 µM
[9]
  TGI: > 100 µM
[10]
  TGI: > 100 µM
[11]
  TGI: > 100 µM
[12]
  TGI: 44.4 µM
[13]
  TGI: > 100 µM
[14]
  TGI: > 100 µM
[15]
  TGI: > 100 µM
[16]
  TGI: > 100 µM
[17]
  TGI: > 100 µM
[18]
  TGI: > 100 µM
[19]
  TGI: > 100 µM
[20]
  TGI: 70.2 µM
[21]
  TGI: > 100 µM
[22]
  TGI: > 88 µM
[23]
  TGI: > 64.4 µM
[24]
  TGI: > 100 µM
[25]
  TGI: > 100 µM
[26]
  TGI: > 100 µM
[27]
  TGI: > 100 µM
[28]
  TGI: > 100 µM
[29]
  TGI: > 100 µM
[30]
  TGI: 66.5 µM
[31]
  TGI: > 100 µM
[32]
  TGI: > 100 µM
[33]
  TGI: > 100 µM
[34]
  TGI: > 100 µM
[35]
  TGI: > 100 µM
[36]
  TGI: > 100 µM
[37]
  TGI: > 100 µM
[38]
  TGI: > 100 µM
[39]
  TGI: > 100 µM
[40]
  TGI: > 100 µM
[41]
  TGI: > 100 µM
[42]
  TGI: > 100 µM
[43]
  TGI: > 100 µM
[44]
  TGI: > 100 µM
[45]
  TGI: > 100 µM
[46]
  TGI: > 100 µM
[47]
  TGI: > 100 µM
[48]
  TGI: > 100 µM
[49]
  TGI: > 100 µM
[50]
  TGI: > 100 µM
[51]
  TGI: > 31.6 µM
[52]
  TGI: > 31.6 µM
[53]
  TGI: > 100 µM
[54]
  TGI: > 100 µM
[55]
  TGI: > 100 µM

## O=C(/N=N/C(=O)OCc1ccccc1)OCc1ccccc1
[56]
  TGI: > 100 µM
[2]
  TGI: > 100 µM
[57]
  TGI: > 100 µM
[3]
  TGI: > 100 µM
[4]
  TGI: > 100 µM
[5]
  TGI: > 100 µM
[7]
  TGI: > 100 µM
[8]
  TGI: > 100 µM
[58]
  TGI: > 100 µM
[9]
  TGI: > 100 µM
[10]
  TGI: > 100 µM
[11]
  TGI: > 100 µM
[12]
  TGI: > 100 µM
[13]
  TGI: > 100 µM
[14]
  TGI: > 100 µM
[15]
  TGI: 56.8 µM
[16]
  TGI: > 100 µM
[17]
  TGI: > 100 µM
[18]
  TGI: > 100 µM
[19]
  TGI: > 100 µM
[20]
  TGI: > 100 µM
[21]
  TGI: > 100 µM
[59]
  TGI: > 100 µM
[60]
  TGI: > 100 µM
[61]
  TGI: > 100 µM
[22]
  TGI: > 100 µM
[24]
  TGI: > 100 µM
[26]
  TGI: > 100 µM
[27]
  TGI: > 100 µM
[30]
  TGI: > 100 µM
[31]
  TGI: > 100 µM
[32]
  TGI: > 100 µM
[33]
  TGI: > 100 µM
[36]
  TGI: > 100 µM
[37]
  TGI: > 100 µM
[62]
  TGI: > 100 µM
[38]
  TGI: > 100 µM
[39]
  TGI: > 100 µM
[40]
  TGI: > 100 µM
[41]
  TGI: > 100 µM
[43]
  TGI: > 100 µM
[44]
  TGI: > 100 µM
[45]
  TGI: > 100 µM
[47]
  TGI: > 100 µM
[48]
  TGI: > 100 µM
[49]
  TGI: > 100 µM
[50]
  TGI: > 100 µM
[63]
  TGI: > 100 µM
[51]
  TGI: > 100 µM
[52]
  TGI: > 100 µM
[53]
  TGI: > 100 µM
[54]
  TGI: > 100 µM
[55]
  TGI: > 100 µM
